Experimental findings from US20070004633A1, “Use of peptidic conjugates for preparing compositions for alopecia preventive and curative treatment” (priority 2003, published 2007) are described below.

Lipoyl = N-lipoyl

This test concerns anagen-phase hair follicles of mouse vibrissae. In words: Growth of mouse vibrissae in vitro (anagen-phase hair follicle culture, technique of Philpott). It is filed as cell-based. More on the design: unit not given here. The conditions noted are these: peptide 10^−7 M, cultured mouse vibrissae follicles. The procedure:
Effects of the Various Peptides on the Growth of Mouse Vibrissae In Vitro
In order to show the stimulatory effect of the peptides on hair growth, anagen-phase hair follicles of mouse vibrissae are cultured according to the technique described by Philpott (Philpott et al. 1994, Human Hair growth in vitro: a model for the study of hair biology. Journal of dermatological science 7; S55-S72). The growth of the hair follicle shaft was followed for several days (D0 to D4). The results are reported in the table below for the peptides R, S and V described above.

In the case of “Lipoyl-Lys-Gly-His-Lys-NH2 (Lipoyl-KGHK-NH2) [Peptide S]”, the “growth of the hair follicle shaft” value is recorded as 0.00 (D0); 0.77 (D1); 1.47 (D2); 1.72 (D3); 1.86 (D4).
Turning to “Ac-Lys-Gly-His-Lys-NH2 (Ac-KGHK-NH2) [Peptide V]”, the “growth of the hair follicle shaft” value (D0) is recorded as 0.00; the “growth of the hair follicle shaft” value (D1) came out at 0.86; the “growth of the hair follicle shaft” value (D2) came out at 1.34; the “growth of the hair follicle shaft” value (D3) is 1.65; the “growth of the hair follicle shaft” value (D4) was determined as 1.65.
On to H-Gly-His-Lys-OH [Peptide R], for which the “growth of the hair follicle shaft” value is recorded as 0.00 (D0); 0.8 (D1); 1.27 (D2); 1.38 (D3); 1.38 (D4).
